Assay results from ChEMBL document CHEMBL1201862, “PubChem BioAssay data set” (2004).
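Protocol summary: plate cells (96-well), add compound at 5 concentrations, incubate 48 h, interpolate endpoints linearly. At the GI50, growth is halved.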 Active and inactive are the calls of the source. No stated cut-off is given here; in the data, active = GI50 up to about 1.1 µM and inactive = higher.

How the values were obtained:
Test in all cases: NCI-60 cell line screen, 48 h
[1] = system: SK-MEL-2
[2] = system: EKVX
[3] = system: K562
[4] = system: LOX IMVI
[5] = system: DMS-114
[6] = system: IGROV-1
[7] = system: HT-29
[8] = system: KM-20L2
[9] = system: HOP-62
[10] = system: RPMI-8226
[11] = system: UACC-62
[12] = system: SNB-75
[13] = system: UO-31
[14] = system: MOLT-4
[15] = system: HOP-92
[16] = system: M14
[17] = system: SF-268
[18] = system: CCRF-CEM
[19] = system: SF-295
[20] = system: NCI-H226
[21] = system: UACC-257
[22] = system: NCI-H23
[23] = system: DLD-1
[24] = system: OVCAR-4
[25] = system: OVCAR-5
[26] = system: SK-MEL-28
[27] = system: SW-620
[28] = system: U-251
[29] = system: HCT-15
[30] = system: SF-539
[31] = system: SK-MEL-5
[32] = system: SNB-78
[33] = system: A498
[34] = system: OVCAR-3
[35] = system: SN12C
[36] = system: NCI-H522
[37] = system: 786-0
[38] = system: KM12
[39] = system: COLO 205
[40] = system: SNB-19
[41] = system: ACHN
[42] = system: Malme-3M
[43] = system: TK-10
[44] = system: HCT-116
[45] = system: OVCAR-8
[46] = system: SR
[47] = system: CAKI-1
[48] = system: DMS-273
[49] = system: HL-60
[50] = system: A549
[51] = system: LXFL 529
[52] = system: HCC 2998
[53] = system: RXF 393
[54] = system: SK-OV-3
[55] = system: NCI-H460
[56] = system: RXF 631

With `COC(=O)C1=CC(=O)C(C(=O)Nc2ccc(OC)cc2)C(c2ccccc2)O1` (stereo unspecified) the GI50 [1] was > 81.7 µM (inactive), the GI50 [2] was 44.1 µM (inactive) and the GI50 [3] was > 67.6 µM (inactive). For the same molecule, the GI50 [4] was 45.1 µM (inactive), the GI50 [5] was 29.7 µM (inactive) and the GI50 [6] was 20.5 µM (inactive). For the same molecule, the GI50 [7] was > 66.5 µM (inactive), the GI50 [8] was > 78.2 µM (inactive) and the GI50 [9] was 24 µM (inactive). For the same molecule, the GI50 [10] was 54.5 µM (inactive), the GI50 [11] was 32.2 µM (inactive) and the GI50 [12] was 23.1 µM (inactive). For the same molecule, the GI50 [13] was 30.5 µM (inactive), the GI50 [14] was > 74.5 µM (inactive) and the GI50 [15] was 24 µM (inactive). For the same molecule, the GI50 [16] was 33.1 µM (inactive), the GI50 [17] was 17.8 µM (inactive) and the GI50 [18] was > 77.3 µM (inactive). The GI50 [19] was 24 µM (inactive), the GI50 [20] was 21.9 µM (inactive) and the GI50 [21] was 72.8 µM (inactive). The GI50 [22] was 21.4 µM (inactive), the GI50 [23] was > 75.5 µM (inactive) and the GI50 [24] was 28.4 µM (inactive). For the same molecule, the GI50 [25] was > 100 µM (inactive), the GI50 [26] was 37.8 µM (inactive) and the GI50 [27] was 40.5 µM (inactive). The GI50 [28] was 21 µM (inactive), the GI50 [29] was 40.6 µM and the GI50 [30] was 21.4 µM (inactive). For the same molecule, the GI50 [31] was 25.7 µM (inactive), the GI50 [32] was 37.9 µM (inactive) and the GI50 [33] was 29.2 µM (inactive). The GI50 [34] was 22.7 µM (inactive), the GI50 [35] was 47.5 µM (inactive) and the GI50 [36] was 28 µM (inactive). For the same molecule, the GI50 [37] was 20.7 µM (inactive), the GI50 [38] was > 100 µM (inactive) and the GI50 [39] was > 100 µM (inactive). The GI50 [40] was 18.1 µM (inactive), the GI50 [41] was 41 µM (inactive) and the GI50 [42] was > 53 µM (inactive). The GI50 [43] was 31.6 µM (inactive), the GI50 [44] was 28.6 µM (inactive) and the GI50 [45] was 34.6 µM (inactive). For the same molecule, the GI50 [46] was 44.5 µM (inactive), the GI50 [47] was 25.2 µM (inactive) and the GI50 [48] was 37.5 µM (inactive). The GI50 [49] was > 84.3 µM (inactive), the GI50 [50] was 28.1 µM (inactive) and the GI50 [51] was 25.9 µM (inactive). The GI50 [52] was > 53.8 µM (inactive), the GI50 [53] was 23.5 µM (inactive) and the GI50 [54] was 28.8 µM (inactive). For the same molecule, the GI50 [55] was 43.9 µM (inactive) and the GI50 [56] was 37.2 µM (inactive).
